For data set [1], the target named is T1, [3H]-(±)-MPH binding to rat brain striatal synaptosomes (Rattus norvegicus, UniProt P23977).
T1 construct: host or cells: rat brain striatal synaptosomes
The settings on record: mg/mg comparison; cited from earlier work.

The test system of data set [2] is human liver microsomes (HLM). The experiment in a line: Hydrolysis to ritalinic acid by human liver microsomes. Type of data set: in vitro ADME. The settings on record: 1 mM substrate, 0.2 mg/ml HLM, 37° C., 60 min. On the procedure: FIG. 2—Hydrolysis of methylphenidate (MPH) and isopropylphenidate (IPH) by recombinant human CES1, HLM, HIM. After incubation with CES 1 transfected human cells, HLM, and HIM at 37° C. for 60 min, the metabolite RA produced via hydrolysis of MPH and IPH was determined by HPLC. Data are presented as mean±SEM of 3 to 6 independent experiments.
Determination of Relative Hydrolytic Rates of MPH and IPH. The assessment of relative rates of hydrolysis of the two ester compounds utilized both cell culture and human liver microsomes (HLM) and human intestinal microsomes (HIM). The human carboxylesterase 1 (hCES1) s9 fraction was prepared utilizing a novel method developed in the inventors' laboratory previously (Zhu et al., 2008). Hydrolysis of IPH and MPH by hCES1, HLM, and human intestinal microsomes was assessed by incubating the substrates with the respective enzymes and measuring the formation of the major metabolite RA formed via ester hydrolysis. Briefly, 50 μl of freshly prepared substrates (IPH and MPH) was mixed with 50 μl of enzymes in 1.5 ml Eppendorf tubes yielding a total volume of 100 μl. […] Concentrations of the primary hydrolytic product of the two compounds, RA were determined utilizing a validated HPLC method previously described.

The test system of a further data set is Sprague-Dawley rats. The following applies: intracerebroventricular; cited from earlier work.

These results are taken from patent publication US20120245201A1, “Isopropylphenidate for Treatment of Attention-Deficit/Hyperactivity Disorder and Fatigue-Related Disorders and Conditions” (priority 2009, published 2012).

T1 sequence (P23977 whole entry): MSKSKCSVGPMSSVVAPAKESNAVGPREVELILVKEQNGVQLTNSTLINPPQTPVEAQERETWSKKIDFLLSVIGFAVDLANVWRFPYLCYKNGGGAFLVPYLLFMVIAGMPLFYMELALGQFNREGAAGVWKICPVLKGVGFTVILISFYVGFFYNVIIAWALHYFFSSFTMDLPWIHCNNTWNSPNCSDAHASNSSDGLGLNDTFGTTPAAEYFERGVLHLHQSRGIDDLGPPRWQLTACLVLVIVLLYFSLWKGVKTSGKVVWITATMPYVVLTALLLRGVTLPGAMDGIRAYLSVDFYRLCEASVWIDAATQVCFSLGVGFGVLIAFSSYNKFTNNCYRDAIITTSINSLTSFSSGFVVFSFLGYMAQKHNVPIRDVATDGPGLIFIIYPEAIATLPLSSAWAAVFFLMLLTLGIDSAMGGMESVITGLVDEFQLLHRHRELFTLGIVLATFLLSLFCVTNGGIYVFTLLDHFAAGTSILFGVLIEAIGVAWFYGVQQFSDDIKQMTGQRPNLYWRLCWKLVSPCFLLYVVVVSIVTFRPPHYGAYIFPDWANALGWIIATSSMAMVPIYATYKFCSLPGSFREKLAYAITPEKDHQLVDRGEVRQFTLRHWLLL

Take `CC(C)OC(=O)C(c1ccccc1)C1CCCCN1` (racemic) [IPH, dl-threo-α-phenyl-2-piperidineacetic acid isopropyl ester]: the “activity relative to MPH in inhibition of [3H]-(±)-MPH binding” value in data set [1] is “approximately one third”. Further, the “resistance to hydrolysis by HLM” value in data set [2] is “most resistant substrate to HLM”.
For the compound `COC(=O)C(c1ccccc1)C1CCCCN1` (racemic) [MPH, dl-threo-methylphenidate, reference compound], the “duration of locomotor activity” value with Sprague-Dawley rats is on record as 60 min.
